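Five compound concentrations were applied to cells in 96-well plates for 48 hours; endpoints were derived by simple linear interpolation of the resulting dose-response curve. GI50: concentration for 50% inhibition of growth. Definition used: TGI = concentration required for complete inhibition of growth.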
What was measured:
Assay in all cases: growth of human tumour cells (NCI), 48 h
SK-MEL-2 melanoma = tested on: SK-MEL-2 melanoma
UO-31 renal = tested on: UO-31 renal
786-0 renal = tested on: 786-0 renal
M14 melanoma = tested on: M14 melanoma
HOP-62 NSCLC = tested on: HOP-62 NSCLC
ACHN renal = tested on: ACHN renal
HOP-92 NSCLC = tested on: HOP-92 NSCLC
TK-10 renal = tested on: TK-10 renal
CCRF-CEM leukemia = tested on: CCRF-CEM leukemia
MDA-MB-435 = tested on: MDA-MB-435

| SMILES | TGI (SK-MEL-2 melanoma) | TGI (UO-31 renal) | TGI (786-0 renal) | TGI (M14 melanoma) | TGI (HOP-62 NSCLC) | TGI (ACHN renal) | TGI (HOP-92 NSCLC) | TGI (TK-10 renal) | TGI (CCRF-CEM leukemia) | GI50 (SK-MEL-2 melanoma) | GI50 (UO-31 renal) | GI50 (786-0 renal) | GI50 (HOP-62 NSCLC) | GI50 (HOP-92 NSCLC) | GI50 (CCRF-CEM leukemia) | GI50 (M14 melanoma) | GI50 (ACHN renal) | GI50 (MDA-MB-435) | TGI (MDA-MB-435) | GI50 (TK-10 renal) |
| --- | --- | --- | --- | --- | --- | --- | --- | --- | --- | --- | --- | --- | --- | --- | --- | --- | --- | --- | --- | --- |
| C/C(=N/NC(=O)c1ccccc1S(N)(=O)=O)C(CN1CCCCC1)C(C1=C(O)C2C=CC=CC2OC1=O)c1ccccc1 (stereo not drawn) | > 100 µM | > 100 µM | > 100 µM | > 100 µM | > 100 µM | > 100 µM | 77.1 µM | > 100 µM | 67.7 µM |  |  |  |  |  |  |  |  |  |  |  |
| Cc1cc(N(CCC#N)CCC#N)ccc1/C=C(\NC(=O)/C=C/c1ccccc1)C(=O)N=[N+]=[N-] | > 100 µM | > 100 µM | > 100 µM | > 100 µM | > 100 µM | > 100 µM |  | > 100 µM | > 100 µM |  |  |  |  |  |  |  |  |  |  |  |
| C/C(CN1C(=O)c2ccccc2C1=O)=N\NS(=O)(=O)c1ccc2ccccc2c1 | > 100 µM | > 100 µM | > 100 µM | > 100 µM | > 100 µM | > 100 µM |  | > 100 µM | > 100 µM |  |  |  |  |  |  |  |  |  |  |  |
| O=C(CCc1nnc2s/c(=C\c3ccc([N+](=O)[O-])cc3)c(=O)n12)Nc1ccc(Cl)c(Cl)c1 | 73.9 µM | > 100 µM | 35.7 µM | 45 µM | 45.7 µM | > 100 µM | > 100 µM | > 100 µM | 51 µM |  |  |  |  |  |  |  |  |  |  |  |
| NC(N)NCCCc1cn2c(n1)C1CCCN1C(=O)C2Cc1ccccc1 (stereo not drawn) | > 100 µM | > 100 µM | > 100 µM | > 100 µM | > 100 µM | > 100 µM |  | > 100 µM | > 100 µM |  |  |  |  |  |  |  |  |  |  |  |
| COc1ccc(-c2csc3c2-n2cccc2C3=O)cc1 | > 79.9 µM | > 44.2 µM | > 100 µM |  | > 72 µM | > 90.9 µM | > 100 µM | > 100 µM | > 100 µM | 0.0111 µM | 0.049 µM | 0.0497 µM | 0.0986 µM | 0.0919 µM | 0.0299 µM |  |  |  |  |  |
| O=c1[nH]c2ccccc2n1C1CCNCC1 | > 100 µM | > 100 µM | > 100 µM | > 100 µM | > 100 µM | > 100 µM |  | > 100 µM | > 100 µM | > 100 µM | > 100 µM | > 100 µM | > 100 µM |  | > 100 µM | > 100 µM | > 100 µM | > 100 µM | > 100 µM | > 100 µM |
| COc1cccc2c1nc(C(F)F)n2-c1nc(-c2ccc(NS(=O)(=O)CCN(C)C)cc2)nc(N2CCOCC2)n1 | 2.5 µM | 1.1 µM | 2.76 µM | > 100 µM | 6.56 µM | 11.2 µM |  | 0.615 µM | 20.5 µM | 0.195 µM | 0.0659 µM | 0.231 µM | 0.123 µM |  | 0.257 µM | 0.243 µM | 0.115 µM | 0.132 µM | 7.2 µM | 0.0597 µM |
| CC(C)(CN1CCCCC1)C(=O)/C=C/c1ccccc1 | 28.9 µM | 39.6 µM | 27.3 µM | 34.7 µM | 61.3 µM | 96.6 µM |  | 30.5 µM | 35.4 µM |  |  |  |  |  |  |  |  |  |  |  |
| O=C1C2C3CC4C5C3C1C5C1(SCCS1)C42 (stereo not drawn) | > 100 µM | > 100 µM | > 100 µM | > 100 µM | > 100 µM | > 100 µM |  | > 100 µM | > 100 µM |  |  |  |  |  |  |  |  |  |  |  |
| CCN(CC)CC(=O)NC1c2ccccc2Oc2ccccc21 |  | > 100 µM | > 100 µM | > 100 µM | > 100 µM |  |  | > 100 µM | > 100 µM |  |  |  |  |  |  |  |  |  |  |  |
| COC(=O)N[C@H]1CCc2cc(OC)c(OC)c(OC)c2-c2ccc(SC)c(=O)cc21 | > 100 µM | > 100 µM | > 100 µM | > 26.9 µM | > 100 µM | > 100 µM | > 64.8 µM | > 100 µM | > 100 µM | 1.76 µM | < 0.0447 µM | < 0.01 µM | < 0.01 µM | 0.0631 µM | < 0.01 µM | < 0.01 µM | < 0.01 µM |  |  | 13.1 µM |
| C[C@@H]1C(=O)CC2C(C)(C)CCC[C@]2(C)[C@@]12CC[C@]1(C=COC1)O2 (stereo partly drawn) | 44.3 µM | > 100 µM | > 100 µM | > 100 µM | > 100 µM | > 100 µM | 48 µM |  | 70.8 µM |  |  |  |  |  |  |  |  |  |  |  |
| CC(=O)/C(=C\c1ccc(Cl)cc1)c1ccccc1 | > 100 µM | > 57.9 µM | > 100 µM |  | > 100 µM | > 70 µM | > 26.2 µM | > 66.6 µM | > 100 µM | 0.141 µM | 1.02 µM | 0.128 µM | 0.179 µM | 0.12 µM | 0.0534 µM |  | 0.548 µM |  |  | 2.76 µM |
| Cn1cc(C2=C(c3ccsc3)C(=O)NC2=O)c2ccccc21 | > 25 µM | > 25 µM | > 25 µM | > 25 µM | > 25 µM | > 25 µM |  | > 25 µM | > 25 µM | > 25 µM | 8.49 µM | > 25 µM | > 25 µM |  | > 21.1 µM | > 25 µM | > 25 µM | > 25 µM | > 25 µM | > 25 µM |
| O=C(CCc1n[nH]c(=S)o1)Nc1cc(Cl)ccc1Cl |  | > 100 µM | 99.2 µM | > 100 µM | > 100 µM | > 100 µM | > 100 µM | > 100 µM | > 100 µM |  |  |  |  |  |  |  |  |  |  |  |
| O=C1C=C(Nc2ccccc2)c2ccccc2C1=O |  | 4.48 µM | 18.9 µM | 3.65 µM | 2.83 µM | 7.88 µM | 13.2 µM | 7.75 µM | 14.7 µM |  | 1.71 µM | 5.17 µM | 1.17 µM | 2.73 µM | 3.54 µM | 1.96 µM | 2.56 µM | 1.93 µM | 3.7 µM | 2.86 µM |
| O=S(=O)(NCCCNc1cc(-c2cn(-c3ccccc3)nc2-c2cccc(O)c2)ccn1)c1ccc(C(F)(F)F)cc1 | 3.63 µM | 5.74 µM | 3.7 µM | 3.24 µM | 3.78 µM | 10.7 µM | 3.9 µM | 9.84 µM |  | 1.88 µM | 2.04 µM | 1.57 µM | 1.95 µM | 1.56 µM |  | 1.66 µM | 3.08 µM | 1.74 µM | 3.46 µM | 3.32 µM |
